Patent publication US20200017496A1 (priority 2017, published 2020)
Where two headings read alike, the source gives them in different places.

Experiments:
Assay in all cases: MIC of compounds alone and combined with antibacterials, broth microdilution (CLSI)
Format in all cases: cell-based
[1] = system: Citrobacter koseri (CKR) isolates; conditions: for MIC: Citrobacter koseri, ATB alone, read-out: MIC
Experimental: (§1) Method 2: MIC of Compounds Alone and Combined with Antibacterials Against Bacterial Isolates.
(§2) Compounds of the present invention were assessed against genotyped bacterial strains (Table 3, 4) alone or in combination with an antibacterial (Table 2). […] Log phase bacterial suspensions were adjusted to a final density of 5·10^5 CFU/mL in cation-adjusted Mueller-Hinton broth (ca-MHB; Becton-Dickinson and Company) and added to each well (98 μL). Microplates were incubated for 16-20 h at 35° C. in ambient air. The MIC of the compounds was defined as the lowest concentration of said compounds that prevented bacterial growth as read by visual inspection. The MIC of ATB at each compound concentration was defined as the lowest concentration of ATB that prevented bacterial growth as read by visual inspection.

[2] = system: Enterobacter aerogenes (EAE) isolates; conditions: for MIC: Klebsiella aerogenes
Experimental: as §1, §2

[3] = system: Escherichia coli (ECO) isolates
Experimental: as §1, §2

CC(C)(O/N=C(\C(=O)N[C@@H]1C(=O)N2C(C(=O)[O-])=C(C[n+]3ccccc3)CS[C@H]12)c1csc(N)n1)C(=O)O [CAZ, Ceftazidime]
MIC ATB in combination ([1]; CKO ROU, AF1 @ 4 μg/mL): <=0.25 μg/mL | MIC ATB in combination ([1]; CKO ROU, AF1 @ 8 μg/mL): <=0.25 μg/mL | MIC ATB in combination ([1]; CKO UFR149, AF1 @ 4 μg/mL): 0.5 µg/mL | MIC ATB in combination ([1]; CKO UFR149, AF1 @ 8 μg/mL): <=0.25 μg/mL | MIC ATB in combination ([1]; CKO UFR150, AF1 @ 4 μg/mL): 4 µg/mL | MIC ATB in combination ([1]; CKO UFR150, AF1 @ 8 μg/mL): 4 µg/mL | MIC ([1]; strain CKO ROU (TEM-1, SHV-12, CTX-M-15, OXA-1, OXA-48)): 1 µg/mL | MIC ([1]; strain CKO UFR150 (TEM-1, OXA-48)): 4 µg/mL | MIC ATB in combination ([2]; EAE 49469, AF1 @ 4 μg/mL): 8 µg/mL | MIC ATB in combination ([2]; EAE 49469, AF1 @ 8 μg/mL): 2 µg/mL | MIC ATB in combination ([2]; EAE 200261, AF1 @ 4 μg/mL): 2 µg/mL | MIC ATB in combination ([2]; EAE 200261, AF1 @ 8 μg/mL): 0.5 µg/mL | MIC ATB in combination ([2]; EAE UFR199, AF1 @ 4 μg/mL): 1 µg/mL | MIC ATB in combination ([2]; EAE UFR199, AF1 @ 8 μg/mL): 0.5 µg/mL | MIC ATB in combination ([2]; EAE UFR201, AF1 @ 4 μg/mL): 0.5 µg/mL | MIC ATB in combination ([2]; EAE UFR201, AF1 @ 8 μg/mL): <=0.25 μg/mL | MIC ATB in combination ([2]; EAE UFR202, AF1 @ 4 μg/mL): 2 µg/mL | MIC ATB in combination ([2]; EAE UFR202, AF1 @ 8 μg/mL): 1 µg/mL | MIC ATB in combination ([2]; EAE UFR213, AF1 @ 4 μg/mL): 0.5 µg/mL | MIC ATB in combination ([2]; EAE UFR213, AF1 @ 8 μg/mL): 0.5 µg/mL | MIC [2]: > 256 µg/mL | MIC ([2]; strain EAE UFR202 (TEM-24), ATB alone, read-out: MIC): > 256 µg/mL | MIC ([2]; strain EAE UFR213 (TEM-24), ATB alone, read-out: MIC): > 256 µg/mL | MIC ATB in combination ([3]; ECO 4133, AF1 @ 4 μg/mL): <=0.25 μg/mL | MIC ATB in combination ([3]; ECO 4133, AF1 @ 8 μg/mL): <=0.25 μg/mL | MIC ATB in combination ([3]; ECO 5302, AF1 @ 4 μg/mL): <=0.25 μg/mL | MIC ATB in combination ([3]; ECO 5302, AF1 @ 8 μg/mL): <=0.25 μg/mL | MIC ATB in combination ([3]; ECO 131119, AF1 @ 4 μg/mL): <=0.25 μg/mL | MIC ATB in combination ([3]; ECO 131119, AF1 @ 8 μg/mL): <=0.25 μg/mL | MIC ATB in combination ([3]; ECO 180070, AF1 @ 4 μg/mL): <=0.25 μg/mL | MIC ATB in combination ([3]; ECO 180070, AF1 @ 8 μg/mL): <=0.25 μg/mL | MIC ATB in combination ([3]; ECO 190314, AF1 @ 4 μg/mL): 0.5 µg/mL | MIC ATB in combination ([3]; ECO 190314, AF1 @ 8 μg/mL): <=0.25 μg/mL | MIC ATB in combination ([3]; ECO 190317, AF1 @ 8 μg/mL): <=0.25 μg/mL | MIC ATB in combination ([3]; ECO 190457, AF1 @ 4 μg/mL): <=0.25 μg/mL | MIC ATB in combination ([3]; ECO 190457, AF1 @ 8 μg/mL): <=0.25 μg/mL | MIC ATB in combination ([3]; ECO 190549, AF1 @ 4 μg/mL): <=0.25 μg/mL | MIC ATB in combination ([3]; ECO 190549, AF1 @ 8 μg/mL): <=0.25 μg/mL | MIC ATB in combination ([3]; ECO 200159, AF1 @ 4 μg/mL): <=0.25 μg/mL | MIC ATB in combination ([3]; ECO 200159, AF1 @ 8 μg/mL): <=0.25 μg/mL | MIC ATB in combination ([3]; ECO 200259, AF1 @ 4 μg/mL): <=0.25 μg/mL | MIC ATB in combination ([3]; ECO 200259, AF1 @ 8 μg/mL): <=0.25 μg/mL | MIC ATB in combination ([3]; ECO 200344, AF1 @ 4 μg/mL): <=0.25 μg/mL | MIC ATB in combination ([3]; ECO 200344, AF1 @ 8 μg/mL): <=0.25 μg/mL | MIC ATB in combination ([3]; ECO 260096, AF1 @ 4 μg/mL): <=0.25 μg/mL | MIC ATB in combination ([3]; ECO 260096, AF1 @ 8 μg/mL): <=0.25 μg/mL | MIC ATB in combination ([3]; ECO 260304, AF1 @ 4 μg/mL): <=0.25 μg/mL | MIC ATB in combination ([3]; ECO 260304, AF1 @ 8 μg/mL): <=0.25 μg/mL | MIC ATB in combination ([3]; ECO 260508, AF1 @ 4 μg/mL): <=0.25 μg/mL | MIC ATB in combination ([3]; ECO 260508, AF1 @ 8 μg/mL): <=0.25 μg/mL | MIC ATB in combination ([3]; ECO RGN238, AF1 @ 4 μg/mL): <=0.25 μg/mL | MIC ATB in combination ([3]; ECO RGN238, AF1 @ 8 μg/mL): <=0.25 μg/mL | MIC ATB in combination ([3]; ECO UFR15, AF1 @ 4 μg/mL): <=0.25 μg/mL | MIC ATB in combination ([3]; ECO UFR15, AF1 @ 8 μg/mL): <=0.25 μg/mL | MIC ATB in combination ([3]; ECO UFR16, AF1 @ 4 μg/mL): <=0.25 μg/mL | MIC ATB in combination ([3]; ECO UFR16, AF1 @ 8 μg/mL): <=0.25 μg/mL | MIC ATB in combination ([3]; ECO UFR17, AF1 @ 4 μg/mL): 16 µg/mL | MIC ATB in combination ([3]; ECO UFR17, AF1 @ 8 μg/mL): 2 µg/mL | MIC ATB in combination ([3]; ECO UFR18, AF1 @ 4 μg/mL): 1 µg/mL | MIC ATB in combination ([3]; ECO UFR18, AF1 @ 8 μg/mL): <=0.25 μg/mL | MIC ATB in combination ([3]; ECO UFR19, AF1 @ 4 μg/mL): 1 µg/mL | MIC ATB in combination ([3]; ECO UFR19, AF1 @ 8 μg/mL): <=0.25 μg/mL | MIC ATB in combination ([3]; ECO UFR20, AF1 @ 4 μg/mL): 1 µg/mL | MIC ATB in combination ([3]; ECO UFR20, AF1 @ 8 μg/mL): 1 µg/mL | MIC ATB in combination ([3]; ECO UFR61O, AF1 @ 4 μg/mL): 2 µg/mL | MIC ATB in combination ([3]; ECO UFR61O, AF1 @ 8 μg/mL): 0.5 µg/mL | MIC ATB in combination ([3]; ECO UFR62, AF1 @ 4 μg/mL): <=0.25 μg/mL | MIC ATB in combination ([3]; ECO UFR62, AF1 @ 8 μg/mL): <=0.25 μg/mL | MIC ATB in combination ([3]; ECO UFR74, AF1 @ 4 μg/mL): 1 µg/mL | MIC ATB in combination ([3]; ECO UFR74, AF1 @ 8 μg/mL): <=0.25 μg/mL | MIC ATB in combination ([3]; ECO UFR86, AF1 @ 4 μg/mL): 1 µg/mL | MIC ATB in combination ([3]; ECO UFR86, AF1 @ 8 μg/mL): <=0.25 μg/mL | MIC ATB in combination ([3]; ECO UFR174, AF1 @ 4 μg/mL): <=0.25 μg/mL | MIC ATB in combination ([3]; ECO UFR174, AF1 @ 8 μg/mL): <0.25 µg/mL | MIC ATB in combination ([3]; ECO UFR175, AF1 @ 4 μg/mL): 2 µg/mL | MIC ATB in combination ([3]; ECO UFR175, AF1 @ 8 μg/mL): <=0.25 μg/mL | MIC ATB in combination ([3]; ECO UFR176, AF1 @ 4 μg/mL): 2 µg/mL | MIC ATB in combination ([3]; ECO UFR176, AF1 @ 8 μg/mL): <=0.25 μg/mL | MIC ATB in combination ([3]; ECO UFR184, AF1 @ 4 μg/mL): 1 µg/mL | MIC ATB in combination ([3]; ECO UFR184, AF1 @ 8 μg/mL): <=0.25 μg/mL | MIC ATB in combination ([3]; ECO UFR185, AF1 @ 4 μg/mL): 2 µg/mL | MIC ATB in combination ([3]; ECO UFR185, AF1 @ 8 μg/mL): <0.25 µg/mL | MIC ATB in combination ([3]; ECO UFR186, AF1 @ 4 μg/mL): <=0.25 μg/mL | MIC ATB in combination ([3]; ECO UFR186, AF1 @ 8 μg/mL): <=0.25 μg/mL | MIC ATB in combination ([3]; ECO UFR187, AF1 @ 4 μg/mL): 1 µg/mL | MIC ATB in combination ([3]; ECO UFR187, AF1 @ 8 μg/mL): <=0.25 μg/mL | MIC ATB in combination ([3]; ECO UFR189, AF1 @ 4 μg/mL): <=0.25 μg/mL | MIC ATB in combination ([3]; ECO UFR189, AF1 @ 8 μg/mL): <=0.25 μg/mL | MIC ATB in combination ([3]; ECO UFR190, AF1 @ 4 μg/mL): <=0.25 μg/mL | MIC ATB in combination ([3]; ECO UFR190, AF1 @ 8 μg/mL): <=0.25 μg/mL | MIC ATB in combination ([3]; ECO UFR191, AF1 @ 4 μg/mL): <=0.25 μg/mL | MIC ATB in combination ([3]; ECO UFR191, AF1 @ 8 μg/mL): <=0.25 μg/mL
